In patent US20130266557A1, “METHODS FOR TREATMENT OF A SARCOMA USING AN EPIMETABOLIC SHIFTER (COENZYME Q10)” (priority 2009, published 2013):

How the values were obtained:
[1] = Level and form of CoQ10 in mitochondrial enriched preparations; type: cell-based
Experimental: Experiments were carried out to confirm the entry of CoQ10 into cells and to determine the level and form of CoQ10 present in the cells. In particular, the level of Coenzyme Q10, as well as the form of CoQ10 (i.e., oxidized or reduced), present in the mitochondria was determined by analyzing mitochondrial enriched preparations from cells treated with CoQ10. […] In addition, changes in levels of proteins from mitochondria enriched samples were analyzed by using 2-D gel electrophoresis and protein identification by mass spectrometry characterization.

[2] = tested on: cancer cell lines (SK-MEL-28, SK-MEL-2, SCC, PaCa2, HEP-G2) and control keratinocytes and melanocytes; test: Sensitivity and apoptotic response of a cell line panel (Example 1); type: cell-based; conditions: various levels of Coenzyme Q10
Experimental: In a first set of experiments, changes to cell morphology/physiology were evaluated by examining the sensitivity and apoptotic response of cells to CoQ10. A panel of skin cell lines including a control cell lines (primary culture of keratinocytes and melanocytes) and several skin cancers cell lines (SK-MEL-28, a non-metastatic skin melanoma; SK-MEL-2, a metastatic skin melanoma; or SCC, a squamous cell carcinoma; PaCa2, a pancreatic cancer cell line; or HEP-G2, a liver cancer cell line) were treated with various levels of Coenzyme Q10.

[3] = tested on: Ewing Sarcoma cell lines (JDT, 0808); test: Combined antibody array, 2-D gel/MS and real time PCR microarray; type: cell-based; conditions: in response to CoQ10 treatment
Description: Functional groups were identified using “The Database for Annotation, Visualization and Integrated Discovery’ [DAVID] that subdivided the genes in 42 major clusters. Maximum number of genes from the list were segregated within the “Regulation of Cellular Process” and “Metabolic Process” functional groups with the other proteins spread over functional groups including regulation of transcription, programmed cell death, cell development, cytoskeleton, nucleus, proteosome and organ development.

[4] = cited from earlier work
melanoma cell = test: Bcl2 level in the presence of VEGF; type: cell-based
Description: The term “Multidimensional Intracellular Molecule (MIM)”, is an isolated version or synthetically produced version of an endogenous molecule that is naturally produced by the body and/or is present in at least one cell of a human. A MIM is capable of entering a cell and the entry into the cell includes complete or partial entry into the cell as long as the biologically active portion of the molecule wholly enters the cell. MIMs are capable of inducing a signal transduction and/or gene expression mechanism within a cell. MIMs are multidimensional because the molecules have both a therapeutic and a carrier, e.g., drug delivery, effect. MIMs also are multidimensional because the molecules act one way in a disease state and a different way in a normal state.

NCI-ES-0808 cells = test: Cell morphology by microscopy; type: cell-based, human
Experimental: NCIES0808 cells were plated in T25 flasks at a density of 2×10^6 cells per flask in media or media containing 50 uM/100 uM Q10. All treatment groups were run in triplicate. Cells were harvested at 0, 3, 6, 24 or 48 hours. Pictures were taken to examine cell morphology before harvesting. To harvest cells, media was removed but saved to be able to collect floating apoptotic cells. Cells were trypsinized with 1 ml of trypsin-EDTA and the enzyme action was stopped by addition of 4 ml complete media. Trypsinized cells were added to the appropriate tube containing the media with dead cells. Cells were centrifuged at 1200 rpm for 5 minutes and media was aspirated leaving behind the cell pellet for RNA extraction. […] RNA samples were eluted from spin columns in water; absorbance was measured at 260 nm, 230 nm and 280 nm. The purity of RNA was evaluated by the 260/230 and 280/230 ratios. The concentration of RNA in all of the samples was calculated from absorbance values at […]. […] The ct values from each of the samples were normalized to three housekeeping genes and fold regulation of Q10 treated groups was compared to time matched controls from cells grown in regular media was calculated.
The morphology of NCI-ES-0808 cells was monitored following treatment with CoQ10. […]

[5] = rats, oral; cited from earlier work
skin cancer cells = conditions: culture of skin cancer cells but not normal cells; cited from earlier work
NCIES0808 cells = test: Real-time PCR, Human Mitochondrial arrays; type: cell-based; conditions: CoQ10 doses and time points examined (50/100 uM; 3-48 hours)
Experimental: NCIES0808 cells were plated in T25 flasks at a density of 2×10^6 cells per flask in media or media containing 50 uM/100 uM Q10. All treatment groups were run in triplicate. Cells were harvested at 0, 3, 6, 24 or 48 hours. Pictures were taken to examine cell morphology before harvesting. To harvest cells, media was removed but saved to be able to collect floating apoptotic cells. Cells were trypsinized with 1 ml of trypsin-EDTA and the enzyme action was stopped by addition of 4 ml complete media. Trypsinized cells were added to the appropriate tube containing the media with dead cells. Cells were centrifuged at 1200 rpm for 5 minutes and media was aspirated leaving behind the cell pellet for RNA extraction. RNA isolation from cell pellets was carried out with the RNeasy kit (Qiagen, Valencia Calif.) according to the manufacturer's instructions. RNA samples were eluted from spin columns in water; absorbance was measured at 260 nm, 230 nm and 280 nm. The purity of RNA was evaluated by the 260/230 and 280/230 ratios. The concentration of RNA in all of the samples was calculated from absorbance values at […]. […] The ct values from each of the samples were normalized to three housekeeping genes and fold regulation of Q10 treated groups was compared to time matched controls from cells grown in regular media was calculated. […]

[6] = human plasma; cited from earlier work
[7] = tested on: keratinocytes and dermal fibroblasts; test: Proliferation and migration of normal cells; type: cell-based; conditions: including keratinocytes and dermal fibroblasts
Description: Moreover, a surprising divergent effect was observed on normal cells as compared to oncogenic cells.

Coenzyme Q10 [CoQ10]
Level of Coenzyme Q10 present in the mitochondria ([1]; addition of exogenous Q10): increase in a time and dose dependent manner
Form of CoQ10 present in the mitochondria ([1]; mitochondrial enriched preparations from treated cells): primarily in oxidized form
Apoptotic response of cancer vs control cell lines [2]: induction of apoptosis and cell death in the cancer cells only
Number of gene products whose expression is significantly influenced [3]: over 90
Share of identified gene products down-regulated [3]: ~40%
Share of identified gene products up-regulated [3]: approximately 60%
Solubility in water [4]: insoluble in water
Level of Bcl2 (melanoma cell): decreased level of Bcl2
Differences in cell number or morphology (FIG. 1 legend) (NCI-ES-0808 cells; 3, 6, 24, 48 hours, 50 uM and 100 uM Q10): no distinct differences in either cell number or morphology
Differences in morphology, apoptotic cells or cell number by microscopy (NCI-ES-0808 cells; among treatment groups, 3 hrs and 6 hrs post treatment (FIG. 1)): No differences in morphology, number of visually ascertainable apoptotic cells or cell number
Fraction of orally-administered CoQ10 absorbed [5]: 2-3%
Rate of apoptosis (skin cancer cells): increase the rate of apoptosis
Genes modulated on Human Mitochondrial arrays (NCIES0808 cells): did not reveal any modulated genes
Share of the molecule found in the reduced form (Q10H2) [6]: 90%
Effect on normal cells [7]: increased proliferation and migration
